# Measured values taken from PMC5438088 (ChemMedChem, 2015).
# Values joined by “and” are separate entries in the source; they are usually repeats but may differ in a detail not shown here. Equal entries are not always repeated. Where two headings read alike, the source gives them in different places.
# Legend:
# [1] = target: T1, hcSHMT (Homo sapiens, UniProt P34896); assay: Isothermal titration calorimetry; assay type: binding; settings: ITC, 25°C, 10 mM glycine
# T1 sequence (P34896 1-483): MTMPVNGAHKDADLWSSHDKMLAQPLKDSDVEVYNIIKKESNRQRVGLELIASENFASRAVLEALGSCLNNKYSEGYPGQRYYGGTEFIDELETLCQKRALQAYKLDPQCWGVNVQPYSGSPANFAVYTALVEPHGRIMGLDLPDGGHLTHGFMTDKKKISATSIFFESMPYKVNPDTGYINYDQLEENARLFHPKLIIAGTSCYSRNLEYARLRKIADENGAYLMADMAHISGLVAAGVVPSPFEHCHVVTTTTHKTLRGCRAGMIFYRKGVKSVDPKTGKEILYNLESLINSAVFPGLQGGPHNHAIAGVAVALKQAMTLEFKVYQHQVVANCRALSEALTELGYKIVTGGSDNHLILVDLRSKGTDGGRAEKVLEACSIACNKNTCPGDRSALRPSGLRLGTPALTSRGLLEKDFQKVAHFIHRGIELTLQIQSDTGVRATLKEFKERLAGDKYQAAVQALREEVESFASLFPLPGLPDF
# [2] = target: T1, hcSHMT; assay type: binding
# [3] = tested on: SHMT; settings: cited from earlier work
smiles,measurement,setting,value
"Nc1nc2c(c(=O)[nH]1)N(C=O)C(CNc1ccc(C(=O)N[C@@H](CCC(=O)O)C(=O)O)cc1)CN2 (stereo partly shown) [Leucovorin, 5-formyltetrahydrofolate]",n (binding stoichiometry),[1],0.51±0.03
same,ΔH (heat of binding),[1],4.64 ± 0.39 kcal/mol
same,ΔS,[1],42.4 cal mol^−1/deg
same,Kd,[1],1360 ± 490 nM
same,Kd,[2],1500 nM
same,inhibition of SHMT,[3]; both SHMT isoforms,"potent, low-micromolar inhibitor"
Nc1nc2c(c(=O)[nH]1)C[C@@H](CCc1ccc(C(=O)N[C@@H](CCC(=O)O)C(=O)O)cc1)CN2 [Lometrexol],ΔH (heat of binding),[1],3.50 ± 0.06 kcal/mol
same,ΔS,[1],38.0 cal mol^−1/deg
same,n (binding stoichiometry),[1]; listed as LTX,0.53±0.05
same,Kd,[1],2000 nM and 1990 nM
same,inhibition mechanism,"[2]; with respect to leucovorin, double reciprocal plot",competitive inhibitor
CC1(C)N=C(N)N=C(N)N1c1ccc(CCCCc2ccc(S(=O)(=O)F)cc2Cl)c(Cl)c1.CCS(=O)(=O)O [NSC127755],inhibition of SHMT,[3],irreversible inhibitor
"Nc1nc2[nH]cc(CCc3ccc(C(=O)N[C@@H](CCC(=O)O)C(=O)O)cc3)c2c(=O)[nH]1 [Pemetrexed, (S)-2-[4-[2-(4-amino-2-oxo-3,5,7-triazabicyclo[4.3.0]nona-3,8,10-trien-9-yl)ethyl]benzoyl] aminopentanedioic acid]",inhibition of hcSHMT,[3]; hcSHMT,low micromolar inhibitor
